Results taken from USRE49022E1, “Insecticidal compounds” (SYNGENTA PARTICIPATIONS AG, priority 2013, dated 2022).

Experiments:
Assay type in all cases: in vivo
[1] = system: Tetranychus urticae (Two-Spotted Spider Mite); assay: Tetranychus urticae, bean leaf disc spray test; conditions: foliar, 192 h, sprayed bean leaf discs, mite populations of mixed ages, 8 days
From the text: Bean leaf discs on agar in 24-well microtiter plates were sprayed with test solutions at an application rate of 200 ppm. After drying, the leaf discs are infested with mite populations of mixed ages. 8 days later, discs were checked for mortality.

[2] = system: Diabrotica balteata (Corn Root Worm); assay: Diabrotica balteata, artificial diet MTP test; conditions: 120 h, 200 ppm (concentration in well 18 ppm), L2 larvae, larval mortality after 5 days
Protocol: A 24-well microtiter plate (MTP) with artificial diet was treated with test solutions at an application rate of 200 ppm (concentration in well 18 ppm) by pipetting. After drying, the MTP's were infested with L2 larvae (6-10 per well). After an incubation period of 5 days, samples were checked for larval mortality The following compound gave at least 80% control of Diabrotica balteata: 1, 2, 3, 4, 5, 6, 7, 8, 9, 10, 11, 12, 13, 14, 15, 16, 17, 18, 19, 20, 21, 22, 23, 24, 25, 26, 27, 28, 29, 30, 31, 32, 33, 34, 35, 36, 37, 38, 39, 40, 41, 42, 43, 44, 45, 46, 47, 48, 49, 50, 51.

[3] = system: Spodoptera littoralis (Egyptian Cotton Leaf Worm); assay: Spodoptera littoralis, agar / lettuce root uptake test; conditions: 144 h, mixed with agar, uptake by lettuce roots, mortality 6 days after infestation
From the text: Test compounds were applied by pipette into 24 well plates and mixed with agar. Application rate: 12.5 ppm. Lettuce seeds were placed on the agar and the multi well plate is closed by another plate which contains also agar. After 7 days the roots have absorbed the compound and the lettuce has grown into the lid plate. The lettuce leafs were now cut off into the lid plate. Spodoptera eggs were pipetted through a plastic stencil on a humid gel blotting paper and the plate closed with it. The samples are checked for mortality 6 days after infestation.

[4] = system: Myzus persicae (Green Peach Aphid); assay: Myzus persicae, sunflower leaf disc spray test; conditions: foliar, 144 h, sprayed sunflower leaf discs, aphid population of mixed ages, mortality after 6 DAT
Protocol: Sunflower leaf discs were placed on agar in a 24-well microtiter plate and sprayed with test solutions at an application rate of 200 ppm. After drying, the leaf discs were infested with an aphid population of mixed ages. After an incubation period of 6 DAT, samples were checked for mortality.

[5] = system: Thrips tabaci (Onion Thrips); assay: Thrips tabaci, sunflower leaf disc spray test; conditions: foliar, 168 h, sprayed sunflower leaf discs, mortality after 7 days
[6] = system: Myzus persicae (Green Peach Aphid); assay: Myzus persicae, sucrose solution / Parafilm test; conditions: 120 h, mixed with sucrose solution under Parafilm, mortality 5 days after infestation
From the text: Test compounds were applied by pipette into 24 well plates and mixed with Sucrose solution. Application rate: 12.5 ppm. The plates were closed with a stretched Parafilm. A plastic stencil with 24 holes is placed onto the plate and infested pea seedlings were placed directly on the Parafilm. The infested plate is closed with a gel blotting paper and another plastic stencil and then turned upside down. 5 days after infestation the samples were checked on mortality.

[7] = system: Spodoptera littoralis (Egyptian Cotton Leafworm); assay: Spodoptera littoralis, cotton leaf disc spray test; conditions: foliar, 72 h, sprayed cotton leaf discs, L1 larvae, 3 days after treatment
From the text: Cotton leaf discs were placed on agar in a 24-well microtiter plate and sprayed with test solutions at an application rate of 200 ppm. After drying, the leaf discs were infested with 5 L1 larvae. The samples were checked for mortality 3 days after treatment (DAT).

[8] = system: Plutella xylostella (Diamond Back Moth); assay: Plutella xylostella, artificial diet MTP test; conditions: 144 h, 200 ppm (concentration in well 18 ppm), L2 larvae, 6 days
Protocol: 24-well microtiter plate (MTP) with artificial diet was treated with test solutions at an application rate of 200 ppm (concentration in well 18 ppm) by pipetting. After drying, the MTP's were infested with L2 larvae (7-12 per well). After an incubation period of 6 days, samples were checked for larval mortality and growth regulation. The following compound gave at least 80% mortality of Plutella xylostella: 1, 2, 3, 4, 5, 6, 7, 8, 9, 10, 11, 12, 13, 14, 15, 16, 17, 18, 19, 20, 21, 22, 23, 24, 25, 26, 27, 28, 29, 30, 31, 32, 33, 34, 35, 36, 37, 38, 39, 40, 41, 42, 43, 44, 45, 46, 47, 48, 49, 50.

CCN(C(=O)c1ccc(C#N)cc1)c1cccc(C(=O)Nc2c(Cl)cc(C(F)(C(F)(F)F)C(F)(F)Br)cc2Br)c1OC (centres unmarked) [Compound 1, N-[2-bromo-4-[1-[bromo(difluoro)methyl]-1,2,2,2-tetrafluoro-ethyl]-6-chloro-phenyl]-3-[(4-cyanobenzoyl)-ethyl-amino]-2-methoxy-benzamide]
≥ 80%: mortality at 200 ppm [1] | pest or weed control at 200 ppm [2] | pest or weed control at 12.5 ppm [3] | pest or weed control at 200 ppm [4] | pest or weed control at 200 ppm [5] | pest or weed control at 12.5 ppm [6] | mortality at 200 ppm [7] | mortality at 200 ppm [8]

CCN(C(=O)c1ccncc1)c1cccc(C(=O)Nc2c(Cl)cc(C(F)(C(F)(F)F)C(F)(F)Br)cc2Br)c1OC (centres unmarked) [Compound 2, N-[3-[[2-bromo-4-[1-[bromo(difluoro)methyl]-1,2,2,2-tetrafluoro-ethyl]-6-chloro-phenyl]carbamoyl]-2-methoxy-phenyl]-N-ethyl-pyridine-4-carboxamide]
≥ 80%: mortality at 200 ppm [1] | pest or weed control at 200 ppm [2] | pest or weed control at 12.5 ppm [3] | pest or weed control at 200 ppm [4] | pest or weed control at 200 ppm [5] | pest or weed control at 12.5 ppm [6] | mortality at 200 ppm [7] | mortality at 200 ppm [8]

COc1c(NC(=O)c2ccncc2)cccc1C(=O)Nc1c(Cl)cc(C(F)(C(F)(F)F)C(F)(F)Br)cc1Br (centres unmarked) [Compound 3, N-[3-[[2-bromo-4-[1-[bromo(difluoro)methyl]-1,2,2,2-tetrafluoro-ethyl]-6-chloro-phenyl]carbamoyl]-2-methoxy-phenyl]pyridine-4-carboxamide]
≥ 80%: mortality at 200 ppm [1] | pest or weed control at 200 ppm [2] | pest or weed control at 12.5 ppm [3] | pest or weed control at 200 ppm [4] | pest or weed control at 200 ppm [5] | pest or weed control at 12.5 ppm [6] | mortality at 200 ppm [7] | mortality at 200 ppm [8]

O=C(Nc1cccc(C(=O)Nc2c(Br)cc(C(F)(C(F)(F)F)C(F)(F)Br)cc2OC(F)F)c1F)c1ccncc1 (centres unmarked) [Compound 4]
≥ 80%: mortality at 200 ppm [1] | pest or weed control at 200 ppm [2] | pest or weed control at 12.5 ppm [3] | pest or weed control at 200 ppm [4] | pest or weed control at 200 ppm [5] | pest or weed control at 12.5 ppm [6] | mortality at 200 ppm [7] | mortality at 200 ppm [8]

N#Cc1ccc(C(=O)Nc2cccc(C(=O)Nc3c(Br)cc(C(F)(C(F)(F)F)C(F)(F)Br)cc3OC(F)F)c2F)cc1 (centres unmarked) [Compound 5]
≥ 80%: mortality at 200 ppm [1] | pest or weed control at 200 ppm [2] | pest or weed control at 12.5 ppm [3] | pest or weed control at 200 ppm [4] | pest or weed control at 200 ppm [5] | pest or weed control at 12.5 ppm [6] | mortality at 200 ppm [7] | mortality at 200 ppm [8]

O=C(Nc1cccc(C(=O)Nc2c(Br)cc(C(F)(C(F)(F)F)C(F)(F)Br)cc2OC(F)F)c1F)c1cc[n+]([O-])cc1 (centres unmarked) [Compound 6]
≥ 80%: mortality at 200 ppm [1] | pest or weed control at 200 ppm [2] | pest or weed control at 12.5 ppm [3] | pest or weed control at 200 ppm [4] | pest or weed control at 200 ppm [5] | pest or weed control at 12.5 ppm [6] | mortality at 200 ppm [7] | mortality at 200 ppm [8]

CCN(C(=O)c1ccncc1)c1cccc(C(=O)Nc2c(Br)cc(C(F)(C(F)(F)F)C(F)(F)Br)cc2OC(F)F)c1F (centres unmarked) [Compound 7]
≥ 80%: mortality at 200 ppm [1] | pest or weed control at 200 ppm [2] | pest or weed control at 12.5 ppm [3] | pest or weed control at 200 ppm [4] | pest or weed control at 200 ppm [5] | pest or weed control at 12.5 ppm [6] | mortality at 200 ppm [7] | mortality at 200 ppm [8]

CCN(C(=O)c1ccc(C#N)cc1)c1cccc(C(=O)Nc2c(Br)cc(C(F)(C(F)(F)F)C(F)(F)Br)cc2OC(F)F)c1F (centres unmarked) [Compound 8]
≥ 80%: mortality at 200 ppm [1] | pest or weed control at 200 ppm [2] | pest or weed control at 12.5 ppm [3] | pest or weed control at 200 ppm [4] | pest or weed control at 200 ppm [5] | pest or weed control at 12.5 ppm [6] | mortality at 200 ppm [7] | mortality at 200 ppm [8]

CCN(C(=O)c1ccncc1)c1cccc(C(=O)Nc2c(Br)cc(C(F)(C(F)(F)F)C(F)(F)Br)cc2OC(F)F)c1OC (centres unmarked) [Compound 9]
≥ 80%: mortality at 200 ppm [1] | pest or weed control at 200 ppm [2] | pest or weed control at 12.5 ppm [3] | pest or weed control at 200 ppm [4] | pest or weed control at 200 ppm [5] | pest or weed control at 12.5 ppm [6] | mortality at 200 ppm [7] | mortality at 200 ppm [8]

CCN(C(=O)c1ccc(C#N)cc1)c1cccc(C(=O)Nc2c(Br)cc(C(F)(C(F)(F)F)C(F)(F)Br)cc2OC(F)F)c1OC (centres unmarked) [Compound 10]
≥ 80%: mortality at 200 ppm [1] | pest or weed control at 200 ppm [2] | pest or weed control at 12.5 ppm [3] | pest or weed control at 200 ppm [4] | pest or weed control at 200 ppm [5] | pest or weed control at 12.5 ppm [6] | mortality at 200 ppm [7] | mortality at 200 ppm [8]

O=C(Nc1cccc(C(=O)Nc2c(Br)cc(C(F)(C(F)(F)F)C(F)(F)Cl)cc2OC(F)F)c1F)c1ccncc1 (centres unmarked) [Compound 11]
≥ 80%: mortality at 200 ppm [1] | pest or weed control at 200 ppm [2] | pest or weed control at 12.5 ppm [3] | pest or weed control at 200 ppm [4] | pest or weed control at 200 ppm [5] | pest or weed control at 12.5 ppm [6] | mortality at 200 ppm [7] | mortality at 200 ppm [8]

O=C(Nc1cccc(C(=O)Nc2c(Br)cc(C(F)(C(F)(F)F)C(F)(F)Cl)cc2OC(F)F)c1F)c1cccnc1 (centres unmarked) [Compound 12]
≥ 80%: mortality at 200 ppm [1] | pest or weed control at 200 ppm [2] | pest or weed control at 12.5 ppm [3] | pest or weed control at 200 ppm [4] | pest or weed control at 200 ppm [5] | pest or weed control at 12.5 ppm [6] | mortality at 200 ppm [7] | mortality at 200 ppm [8]

N#Cc1ccc(C(=O)Nc2cccc(C(=O)Nc3c(Br)cc(C(F)(C(F)(F)F)C(F)(F)Cl)cc3OC(F)F)c2F)cc1 (centres unmarked) [Compound 13]
≥ 80%: mortality at 200 ppm [1] | pest or weed control at 200 ppm [2] | pest or weed control at 12.5 ppm [3] | pest or weed control at 200 ppm [4] | pest or weed control at 200 ppm [5] | pest or weed control at 12.5 ppm [6] | mortality at 200 ppm [7] | mortality at 200 ppm [8]

COc1c(NC(=O)c2ccncc2)cccc1C(=O)Nc1c(Br)cc(C(F)(C(F)(F)F)C(F)(F)Cl)cc1OC(F)F (centres unmarked) [Compound 14]
≥ 80%: mortality at 200 ppm [1] | pest or weed control at 200 ppm [2] | pest or weed control at 12.5 ppm [3] | pest or weed control at 200 ppm [4] | pest or weed control at 200 ppm [5] | pest or weed control at 12.5 ppm [6] | mortality at 200 ppm [7] | mortality at 200 ppm [8]

COc1c(NC(=O)c2cccnc2)cccc1C(=O)Nc1c(Br)cc(C(F)(C(F)(F)F)C(F)(F)Cl)cc1OC(F)F (centres unmarked) [Compound 15]
≥ 80%: mortality at 200 ppm [1] | pest or weed control at 200 ppm [2] | pest or weed control at 12.5 ppm [3] | pest or weed control at 200 ppm [4] | pest or weed control at 200 ppm [5] | pest or weed control at 12.5 ppm [6] | mortality at 200 ppm [7] | mortality at 200 ppm [8]

COc1c(NC(=O)c2ccc(C#N)cc2)cccc1C(=O)Nc1c(Br)cc(C(F)(C(F)(F)F)C(F)(F)Cl)cc1OC(F)F (centres unmarked) [Compound 16]
≥ 80%: mortality at 200 ppm [1] | pest or weed control at 200 ppm [2] | pest or weed control at 12.5 ppm [3] | pest or weed control at 200 ppm [4] | pest or weed control at 200 ppm [5] | pest or weed control at 12.5 ppm [6] | mortality at 200 ppm [7] | mortality at 200 ppm [8]
